Test results: PMC8224742, “Evaluation of 1β-Hydroxylation of Deoxycholic Acid as a Non-Invasive Urinary Biomarker of CYP3A Activity in the Assessment of Inhibition-Based Drug–Drug Interaction in Healthy Volunteers” (Journal of Personalized Medicine, 2021)
Entries after “also recorded” stand apart in the source; their conditions may differ. Read-outs that look alike come from different tables or passages of the source. Marks after values point to notes of the source that are not given here.

Columns and labels:
CYP3A [1] = experiment: Intravenous MDZ (1.0 mg i.v.) plasma pharmacokinetics (MDZ and 1′-OH-MDZ) alone and after repeated inhibitor administration; conditions: for 1’-OH-MDZ AUC0– (zero to infinity), MDZ alone / 1’-OH-MDZ AUClast, MDZ alone / 1’-OH-MDZ Cmax, MDZ alone / 1’-OH-MDZ T1/2, MDZ alone / 1’-OH-MDZ Tmax, MDZ alone: MDZ 1 mg i.v., geometric mean (90% CI)
Method: (§1) ITZ tablets (200 mg) were split equally in two, and 100 mg were given to subjects.
(§2) MDZ acted as a nested control in the evaluation of the endogenous urinary markers, and it was administered both orally (1.5 mg) and intravenously (i.v.; 1.0 mg). Participants were all treated the same way for the baseline and randomly split into 3 arms of 8–10 individuals each to evaluate the effect of the inhibitors. […] MDZ pharmacokinetic (PK) profiling and biomarker sampling was also conducted after the washout period and at the end of the study to determine whether enzyme activity returned to baseline levels. The subjects were their control. Treatment, washout and end of study values were compared with values at baseline.
(§3) Plasma concentrations of MDZ and its metabolite 1′-OH-MDZ were analysed using a validated LC-MS/MS method. Plasma samples were extracted using protein precipitation, where 300 µL of acetonitrile (ACN) containing 500 ng/mL diazepam as an internal standard (IS) was added to 100 µL of plasma. The mixture was then vortexed for 10 min, followed by centrifugation at 10,000× g for 5 min at a temperature of 4 °C. The supernatant was collected, and 5 µL were injected into the LC-MS/MS for analysis.
(§4) The mobile phase consisted of 10 mM ammonium formate in 5% methanol (MeOH) (A) and ACN (B). […] The column temperature was maintained at 40 °C. MDZ and 1′-OH-MDZ were detected on a Sciex 3200 mass spectrometer with a turbo ion spray interphase operated in positive ion mode at 5500 V, a temperature of 5000 °C; GS1 and GS2 at 50 and 60 psi, respectively; and a curtain gas flow of 25 psi. […] The quantification of the MDZ and 1′-OH-MDZ was performed using the Analyst software (version 1.2; Applied Biosystems).
(§5) Standard non-compartmental pharmacokinetic (PK) analysis was performed with the WinNolin program, version 4.1 (Pharsight Corp, Mountain View, CA, USA), using the linear up logarithmic down trapezoidal method. The plasma parameters that were assessed and used for the comparison with the urinary biomarker were MDZ clearance (MDZ CL) and the area under the plasma concentration-time curve (AUC) from zero to infinity (AUC0–inf) of MDZ. More PK parameters were evaluated for MDZ and 1′-OH-MDZ.
(§6) The difference between log-transformed treatment/baseline was calculated pairwise for each subject, as well as for their 90% confidence intervals (CIs). These differences and CIs were anti-log-transformed back for reporting purposes. The same analysis was performed for MDZ clearance and AUC0-inf before and after treatment for comparison.
(§7) The pharmacokinetic (PK) parameters of MDZ were performed by standard noncompartmental
(§8) methods using the WinNolin program, version 4.1 (Pharsight Corp, Mountain View, CA, USA).
(§9) were plotted as graphs of midazolam or 1-OH-midazolam concentration vs. time.

CYP3A [2] = experiment: Oral MDZ (1.5 mg p.o.) plasma pharmacokinetics (MDZ and 1′-OH-MDZ) alone and after repeated inhibitor administration; conditions: for 1’-OH-MDZ AUC0– (zero to infinity), MDZ alone / 1’-OH-MDZ AUClast, MDZ alone / 1’-OH-MDZ Cmax, MDZ alone / 1’-OH-MDZ T1/2, MDZ alone / 1’-OH-MDZ Tmax, MDZ alone / MDZ CL, MDZ alone: MDZ 1.5 mg p.o., geometric mean (90% CI)
Method: as §1, §2, §3, §4, §5, §6, §7, §8, §9

CYP3A [3] = system: CYP3A
Method: as §1, §2
Sample preparations for the analysis of 1β-OH-DCA and ToDCA in human urine were performed using a previously described method but without acid solvolysis [15, 20]. In brief, an aliquot of 50 µL of a 0.1 M Tris HCL buffer (pH 5) containing a mixture of hydrolysis enzymes (100 U/mL choloylglycine hydrolase, 200 µL/mL β-glucuronidase/arylsulfatase, and 100 U/mL sulfatase) was added to 50 µL of urine, followed by adding 50 µL of an aqueous solution containing 1 µM of (D4)-DCA and (D4)-1β-OH-DCA as IS. The mixture was incubated overnight at 37 °C at a shaking speed of 500 rpm for enzymatic hydrolysis of glucuronides, sulfates, and amino acid conjugates. The reaction mixture was then quenched with a 300 µL ACN-MeOH (1:1, v/v) solution followed by centrifugation at 4000× g, 4 °C for 20 min. The supernatant was separated and diluted with an equal volume of water for ultra-high-performance liquid chromatography-high resolution mass spectrometry (UPLC-HRMS) analysis. […]
References containing 10 µM G-DCA, T-DCA, G-1β-OH-DCA, T-1β-OH-DCA, CDCA-24-G, and DCA-3-S were also prepared in stripped urine and subjected to enzymatic hydrolysis to monitor the efficiency of enzymatic deconjugation. […] Therefore, the concentrations of DCA-3-S were also determined in urine and combined with free DCA to represent the total concentration of DCA, i.e., ToDCA. […]

CYP3A [4] = conditions: human, in vivo
Method: as §1, §2, §3, §4, §5, §6, §7, §8, §9

CYP3A [5] = conditions: human, in vivo, iv
Method: as §1, §2, §3, §4, §5, §6, §7, §8, §9

CYP3A [6] = conditions: ITZ 200 mg od for 6 days; cited from earlier work
[7] = Intravenous MDZ (1.0 mg i.v.) plasma pharmacokinetics (MDZ and 1′-OH-MDZ) alone and after repeated inhibitor administration; conditions: human, in vivo, iv, 1 mg; for AUC: MDZ AUC0– (zero to infinity); for AUC(0-t): MDZ AUClast; for Cmax: MDZ Cmax; for half-life: MDZ T1/2, MDZ alone; for Tmax: MDZ Tmax; for AUC(0-inf): i.v. MDZ AUC0-inf
Method: as §1, §2, §3, §4, §5, §6, §7, §8, §9

[8] = Oral MDZ (1.5 mg p.o.) plasma pharmacokinetics (MDZ and 1′-OH-MDZ) alone and after repeated inhibitor administration; conditions: human, in vivo, po, 1.5 mg; for AUC: MDZ AUC0– (zero to infinity); for AUC / AUC(0-t) / Cmax / Tmax: MDZ alone; for AUC / AUC(0-t) / Cmax / half-life / Tmax: MDZ 1.5 mg p.o., geometric mean (90% CI); for AUC(0-t): MDZ AUClast; for Cmax: MDZ Cmax; for half-life: MDZ T1/2, MDZ alone; for Tmax: MDZ Tmax; for AUC(0-inf): Oral MDZ AUC0-inf, Baseline, MDZ 1.5 mg p.o. before inhibitor, geometric mean (range)
Method: as §1, §2, §3, §4, §5, §6, §7, §8, §9

[9] = repeated administration (APZ 1 mg od)
[10] = MDZ alone, MDZ 1 mg i.v., APZ arm (Table S1), geometric mean (90% CI)
[11] = MDZ alone, MDZ 1 mg i.v., FKZ arm (Table S2), geometric mean (90% CI)
[12] = MDZ alone, MDZ 1 mg i.v., ITZ arm (Table S3), geometric mean (90% CI)

OCc1ncc2n1-c1ccc(Cl)cc1C(c1ccccc1F)=NC2 [1’-OH-MDZ, 1′-hydroxymidazolam]
1’-OH-MDZ AUC0– (zero to infinity), MDZ alone (CYP3A [1]; APZ arm (Table S1)): 4.49 (2.12–9.50) ng·h/mL
1’-OH-MDZ AUClast, MDZ alone (CYP3A [1]; APZ arm (Table S1)): 2.54 (1.49–4.35) ng·h/ml
1’-OH-MDZ Cmax, MDZ alone (CYP3A [1]; APZ arm (Table S1)): 1.24 (1.02–1.50) ng/mL
1’-OH-MDZ AUC0– (zero to infinity), MDZ alone (CYP3A [1]; FKZ arm (Table S2)): 3.31 (1.92 – 5.72) ng·h/ml
1’-OH-MDZ AUClast, MDZ alone (CYP3A [1]; FKZ arm (Table S2)): 2.56 (1.65 - 3.96) ng·h/ml
1’-OH-MDZ Cmax, MDZ alone (CYP3A [1]; FKZ arm (Table S2)): 1.09 (0.76 – 1.56) ng/ml
1’-OH-MDZ T1/2, MDZ alone (CYP3A [1]; FKZ arm (Table S2)): 2.30 (1.44 -3.65) h
1’-OH-MDZ Tmax, MDZ alone (CYP3A [1]; FKZ arm (Table S2)): 0.79 (0.69 – 0.90) h
1’-OH-MDZ AUC0– (zero to infinity), MDZ alone (CYP3A [1]; ITZ arm (Table S3)): 2.26 (1.5 – 3.41) ng·h/ml
1’-OH-MDZ AUClast, MDZ alone (CYP3A [1]; ITZ arm (Table S3)): 2.00 (1.41 – 3.01) ng·h/ml
1’-OH-MDZ Cmax, MDZ alone (CYP3A [1]; ITZ arm (Table S3)): 1.09 (0.87 – 1.35) ng/ml
1’-OH-MDZ T1/2, MDZ alone (CYP3A [1]; ITZ arm (Table S3)): 1.25 (0.8 – 1.95) h
1’-OH-MDZ Tmax, MDZ alone (CYP3A [1]; ITZ arm (Table S3)): 0.79 (0.69 -0.90) h
1’-OH-MDZ AUC0– (zero to infinity), MDZ alone (CYP3A [2]; APZ arm (Table S1)): 10.56 (6.77–16.48) ng·h/mL
1’-OH-MDZ AUClast, MDZ alone (CYP3A [2]; APZ arm (Table S1)): 8.23 (6.15–11.02) ng·h/mL
1’-OH-MDZ Cmax, MDZ alone (CYP3A [2]; APZ arm (Table S1)): 2.60 (2.13–3.18) ng/mL
1’-OH-MDZ T1/2, MDZ alone (CYP3A [2]; APZ arm (Table S1)): 2.54 (1.26–5.09) h
1’-OH-MDZ Tmax, MDZ alone (CYP3A [2]; APZ arm (Table S1)): 0.77 (0.65–0.91) h
1’-OH-MDZ AUC0– (zero to infinity), MDZ alone (CYP3A [2]; FKZ arm (Table S2)): 6.73 (3.77 – 12.01) ng·h/ml
1’-OH-MDZ AUClast, MDZ alone (CYP3A [2]; FKZ arm (Table S2)): 6.56 (3.6 – 11.94) ng·h/ml
1’-OH-MDZ Cmax, MDZ alone (CYP3A [2]; FKZ arm (Table S2)): 2.81 (1.61 – 4.92) ng/ml
1’-OH-MDZ T1/2, MDZ alone (CYP3A [2]; FKZ arm (Table S2)): 1.99 (1.32 – 3.0) h
1’-OH-MDZ Tmax, MDZ alone (CYP3A [2]; FKZ arm (Table S2)): 0.83 (0.56 – 1.21) h
1’-OH-MDZ AUC0– (zero to infinity), MDZ alone (CYP3A [2]; ITZ arm (Table S3)): 4.57 (3.04 – 6.88) ng·h/ml
1’-OH-MDZ AUClast, MDZ alone (CYP3A [2]; ITZ arm (Table S3)): 4.22 (2.8 -6.36) ng·h/ml
1’-OH-MDZ Cmax, MDZ alone (CYP3A [2]; ITZ arm (Table S3)): 2.29 (1.64 – 3.19) ng/ml
1’-OH-MDZ T1/2, MDZ alone (CYP3A [2]; ITZ arm (Table S3)): 1.34 (1.05 -1.7) h
1’-OH-MDZ Tmax, MDZ alone (CYP3A [2]; ITZ arm (Table S3)): 0.71 (0.63 – 0.80) h

Cc1nnc2n1-c1ccc(Cl)cc1C(c1ccccc1)=NC2 [APZ, alprazolam]
effect on MDZ PK parameters (in words) (CYP3A [2]; [9]): no significant effect
effect on 1β-OH-DCA/ToDCA UMR (in words) (CYP3A [3]; [9]): No inhibition; also recorded: no significant effect

OC(Cn1cncn1)(Cn1cncn1)c1ccc(F)cc1F [FKZ, fluconazole]
1’-OH-MDZ T1/2, MDZ + inhibitor (CYP3A [4]; po): 1.71 (1 – 2.89) h
1’-OH-MDZ Tmax, MDZ + inhibitor (CYP3A [4]; po): 0.83 (0.68 – 1) h
1’-OH-MDZ T1/2, MDZ + inhibitor (CYP3A [5]): 2.25 (1.56 – 3.23) h
1’-OH-MDZ Tmax, MDZ + inhibitor (CYP3A [5]): 0.70 (0.59 – 0.83) h

CCC(C)n1ncn(-c2ccc(N3CCN(c4ccc(OCC5COC(Cn6cncn6)(c6ccc(Cl)cc6Cl)O5)cc4)CC3)cc2)c1=O (stereo not drawn) [ITZ, itraconazole]
fold increase in oral MDZ AUC (CYP3A [6]): 6.6 fold
reduced oral MDZ clearance (CYP3A [6]): 85%
Oral MDZ CL, Treatment/Baseline (90%CI) (CYP3A [4]): 0.30 ** (0.18–0.47)
decrease of oral MDZ CL from baseline (CYP3A [4]): 70%
time after completion of treatment at which 1β-OH-DCA/ToDCA ratio was fully restored to baseline (CYP3A [3]; after ITZ 100 mg od for 6 days): nine
i.v. MDZ CL, Treatment/Baseline (90%CI) (CYP3A [5]): 0.44 * (0.26–0.73)

Cc1ncc2n1-c1ccc(Cl)cc1C(c1ccccc1F)=NC2 [MDZ, midazolam]
AUC(0-inf) (CYP3A [1]; human, in vivo, iv, 1 mg, i.v. MDZ AUC0-inf, Baseline, ITZ arm, MDZ 1.0 mg i.v. before inhibitor, geometric mean (range)): 12.1 ng·h/mL
clearance (CYP3A [1]; human, in vivo, iv, 1 mg, i.v. MDZ CL, Baseline, ITZ arm, MDZ 1.0 mg i.v. before inhibitor, geometric mean (range)): 1380 mL/min
AUC [7, 10]: 16.8 ng·h/mL
AUC [7, 11]: 12.4 ng·h/mL
AUC [7, 12]: 13.5 ng·h/mL
AUC(0-t) [7, 10]: 16.6 ng·h/mL
AUC(0-t) [7, 11]: 12 ng·h/mL
AUC(0-t) [7, 12]: 12.9 ng·h/mL
clearance ([7]; MDZ CL, MDZ alone, MDZ 1 mg i.v., APZ arm (Table S1), geometric mean (90% CI)): 998 mL/min
clearance ([7]; MDZ CL, MDZ alone, MDZ 1 mg i.v., FKZ arm (Table S2), geometric mean (90% CI)): 1350 mL/min
clearance ([7]; MDZ CL, MDZ alone, MDZ 1 mg i.v., ITZ arm (Table S3), geometric mean (90% CI)): 1230 mL/min
Cmax [7, 10]: 26 ng/mL
Cmax [7, 11]: 22.6 ng/mL
Cmax [7, 12]: 25 ng/mL
half-life ([7]; MDZ 1 mg i.v., APZ arm (Table S1), geometric mean (90% CI)): 2.06 h
half-life ([7]; MDZ 1 mg i.v., FKZ arm (Table S2), geometric mean (90% CI)): 1.55 h
half-life ([7]; MDZ 1 mg i.v., ITZ arm (Table S3), geometric mean (90% CI)): 2.32 h
Tmax [7, 10]: 0.29 h
Tmax [7, 12]: 0.28 h
AUC(0-inf) ([7]; Baseline, APZ arm, MDZ 1.0 mg i.v. before inhibitor, geometric mean (range)): 16.8 ng·h/mL
AUC(0-inf) ([7]; Baseline, FKZ arm, MDZ 1.0 mg i.v. before inhibitor, geometric mean (range)): 12.4 ng·h/mL
clearance ([7]; i.v. MDZ CL, Baseline, APZ arm, MDZ 1.0 mg i.v. before inhibitor, geometric mean (range)): 993 mL/min
clearance ([7]; i.v. MDZ CL, Baseline, FKZ arm, MDZ 1.0 mg i.v. before inhibitor, geometric mean (range)): 1350 mL/min
Oral MDZ CL, Baseline (CYP3A [2]; APZ arm, MDZ 1.5 mg p.o. before inhibitor, geometric mean (range)): 59.1 (28.0–220.5) L/h
Oral MDZ CL, Baseline (CYP3A [2]; FKZ arm, MDZ 1.5 mg p.o. before inhibitor, geometric mean (range)): 59.8 (17.0–135.9) L/h
Oral MDZ CL, Baseline (CYP3A [2]; ITZ arm, MDZ 1.5 mg p.o. before inhibitor, geometric mean (range)): 126 (46.7–648.8) L/h
MDZ CL, MDZ alone (CYP3A [2]; APZ arm (Table S1)): 137.34 (101–186) L/h
MDZ CL, MDZ alone (CYP3A [2]; FKZ arm (Table S2)): 77.41 (56.44 – 106.19) L/h
MDZ CL, MDZ alone (CYP3A [2]; ITZ arm (Table S3)): 155.58 L/h
AUC(0-inf) (CYP3A [2]; human, in vivo, po, 1.5 mg, Oral MDZ AUC0-inf, Baseline, ITZ arm, MDZ 1.5 mg p.o. before inhibitor, geometric mean (range)): 10.8 ng·h/mL
AUC ([8]; APZ arm (Table S1)): 10.6 ng·h/mL
AUC ([8]; FKZ arm (Table S2)): 19.4 ng·h/mL
AUC ([8]; ITZ arm (Table S3)): 9.64 ng·h/mL
AUC(0-t) ([8]; APZ arm (Table S1)): 10.4 ng·h/mL
AUC(0-t) ([8]; FKZ arm (Table S2)): 18.5 ng·h/mL
AUC(0-t) ([8]; ITZ arm (Table S3)): 8.61 ng·h/mL
Cmax ([8]; APZ arm (Table S1)): 4.13 ng/mL
Cmax ([8]; FKZ arm (Table S2)): 6.18 ng/mL
Cmax ([8]; ITZ arm (Table S3)): 4.86 ng/mL
half-life ([8]; APZ arm (Table S1)): 1.63 h
half-life ([8]; FKZ arm (Table S2)): 2.26 h
half-life ([8]; ITZ arm (Table S3)): 1.43 h
Tmax ([8]; APZ arm (Table S1)): 0.76 h
Tmax ([8]; FKZ arm (Table S2)): 0.79 h
Tmax ([8]; ITZ arm (Table S3)): 0.63 h
AUC(0-inf) ([8]; APZ arm): 10.6 ng·h/mL
AUC(0-inf) ([8]; FKZ arm): 22.7 ng·h/mL
